# Test results reported in patent US6780403B1, “Deodorants” (Kao Corporation, priority 1999, dated 2004).
# What was measured:
# [1] = acid dissociation index (pK1, pK2) at 25° C.; assay type: physicochemical; conditions: for Difference (pK2 - pK1): 25° C., method (D); for first acid dissociation index / second acid dissociation index: for the dibasic acid, source of value not given
# Experimental: The organic dibasic acid used as a deodorant in the present invention is selected from organic dibasic acids and/or salts thereof having a difference between the first acid dissociation index and the second acid dissociation index of 1.7 or more at 25° C. (hereinafter, described as deodorant organic dibasic acid). The acid dissociation index can be measured, for example, by a method (A) described in The Journal of Physical Chemistry vol.
# Further, previously obtained data may also be used. […] Further, the organic dibasic acid can be selected based on data bases (D) such as pKa BASE of Compudrug, and the like. The first acid dissociation index and the second acid dissociation index of the organic dibasic acid may be determined by any of the methods (A) to (D).
# [2] = 25° C.; method (D), data bases such as pKa BASE of Compudrug; cited from earlier work
Compound,Difference (pK2 - pK1) [1],first acid dissociation index [1],second acid dissociation index [1],First acid dissociation index (pK1) [2],Second dissociation index (pK2) [2]
"O=C(O)[C@@H]1CCCC[C@H]1C(=O)O (relative stereo) [Trans-1,2-cyclohexanedicarboxylic acid]",1.76,–,–,–,–
"O=C(O)[C@@H]1CCCCCC[C@H]1C(=O)O (relative stereo) [Trans-1,2-cyclooctanedicarboxylic acid]",1.87,–,–,4.37,6.24
"O=C(O)[C@@H]1CCC[C@H]1C(=O)O (relative stereo) [Trans-1,2-cyclopentandicarboxylic acid]",1.85,–,–,4.14,5.99
"CCC(CC)(C(=O)O)C(=O)O [2,2-diethylmalonic acid]",5.27,–,–,2.15,7.42
"CC(C)(C(=O)O)C(=O)O [2,2-dimethylmalonic acid]",2.70,–,–,–,–
"CC(C)(C)C(C(=O)O)C(C(=O)O)C(C)(C)C (centres unmarked) [2,3-di-t-butylsuccinic acid]",8.06,–,–,2.20,10.26
"CCC(C(=O)O)C(CC)C(=O)O (centres unmarked) [2,3-diethylsuccinic acid]",2.83,–,–,3.63,6.46
"CC(C(=O)O)C(C)C(=O)O (centres unmarked) [2,3-dimethylsuccinic acid]",2.08,–,–,3.92,6.00
CCC(CC)C(CC)(CCC(=O)O)C(=O)O (centres unmarked) [2-ethyl-2-(1-ethylpropyl)glutaric acid],5.16,–,–,2.15,7.31
CCC(C(=O)O)(C(=O)O)C(C)C [2-ethyl-2-isopropylmalonic acid],6.07,–,–,2.03,8.10
alkenylsuccinic acid carrying an alkenyl group having 14 carbon atoms [a-4],–,4.01,6.12,–,–

# Second part, led by results:
Difference (pK2 - pK1) [1],first acid dissociation index [1],second acid dissociation index [1],Compound,First acid dissociation index (pK1) [2],Second dissociation index (pK2) [2]
1.88,–,–,"O=C(O)[C@@H]1CCCCC[C@H]1C(=O)O (relative stereo) [Trans-1,2-cycloheptanedicarboxylic acid]",4.30,6.18
6.73,–,–,"CC(C)C(C(=O)O)(C(=O)O)C(C)C [2,2-diisopropylmalonic acid]",2.12,8.85
5.32,–,–,"CCCC(CCC)(C(=O)O)C(=O)O [2,2-dipropylmalonic acid]",1.86,7.18
4.35,–,–,CCC(C)(C(=O)O)C(=O)O [2-ethyl-2-methylmalonic acid],2.20,6.55
2.90,–,–,CCC(C(=O)O)C(C)C(=O)O (centres unmarked) [2-ethyl-3-methylsuccinic acid],3.20,6.10
2.85,–,–,CCC(C(=O)O)C(=O)O [2-ethylmalonic acid],2.96,5.81
2.96,–,–,CC(C)C(C(=O)O)C(=O)O [2-isopropylmalonic acid],2.92,5.88
2.49,–,–,"O=C(O)[C@H]1CCCC[C@H]1C(=O)O [Cis-1,2-cyclohexanedicarboxylic acid]",–,–
4.08,–,–,O=C(O)/C=C\C(=O)O [Maleic acid],–,–
–,4.06,6.01,alkenylsuccinic acid carrying an alkenyl group having 12 carbon atoms [a-3],–,–
